Paper PMC12736120, “First-in-Human Phase I Clinical Trial of SLC-391, a Novel and Selective AXL Inhibitor, in Patients with Advanced Solid Tumours” (Pharmaceuticals, 2025)

Experiment: Phase I safety and tolerability (DLTs, adverse events, laboratory, ECG)
Type: in vivo
Procedure: This study employed a standard 3 + 3 dose escalation design with a starting dose of 25 mg QD. […] Dose escalation decisions took into account all available data from evaluable subjects as well as PK and the safety profile of prior dose cohorts. […] There was a minimum 5-day stagger between dosing of the first and second subjects in each dose cohort. Dose escalation decisions were made by a data review committee (DRC) composed of, at minimum, the medical monitor, at least one principal investigator, and a sponsor representative, per the study DRC Plan. Dose escalation could continue until 2 or more subjects in the same dose cohort experienced a dose-limiting toxicity (DLT). DLTs were defined as Grade 3 or 4 adverse drug reactions (ADRs), with grades as defined in the National Cancer Institute Common Toxicity Criteria for Adverse Events (NCI-CTCAE) version 5.0. […] The MTD was defined as the highest dose at which no more than 1 of 6 subjects experienced a DLT during cycle 1 of the study drug. The MTD would have been exceeded if 2 or more subjects in a dose cohort of up to 6 subjects experienced a DLT. Subjects could continue treatment until disease progression, unacceptable toxicity, death, withdrawal of consent, or loss to follow-up.
Before enrolment in the study, all patients received a detailed medical history and physical examination. Clinical laboratory evaluations included clinical chemistry, complete blood count, urinalysis, coagulation factors, and a lipid panel. Other safety assessments included vital signs, physical examination, electrocardiogram, and echocardiogram with multigated acquisition (ECHO/MUGA). Safety assessments were performed on days 1, 8, 15, and 21 of cycle 1, and on day 1 of cycles 2 to 6.

[1] = Grade 3, Overall Study (N = 35)
[2] = Grade All, Overall BID (N = 15)
[3] = Grade All, Overall Study (N = 35)

Nc1ncc(-c2cnn(C3CCNCC3)c2)cc1-c1nnc(CC2CC2)o1 [SLC-391, 3-(5-[cyclopropylmethyl]-1,3,4-oxadiazol-2-yl)-5-(1-[piperidin-4-yl]-1H-pyrazol-4-yl)-pyridin-2-amine]
TEAE: Metabolism and nutrition disorders (Grade 3, Overall BID (N = 15)): 0 n (%) | TEAE: Musculoskeletal and connective tissue disorders (Grade 3, Overall BID (N = 15)): 1 (6.7) n (%) | TEAE: Nausea (Grade 3, Overall BID (N = 15)): 0 n (%) | TEAE: Renal and urinary disorders (Grade 3, Overall BID (N = 15)): 1 (6.7) n (%) | TEAE: Respiratory, thoracic, and mediastinal disorders (Grade 3, Overall BID (N = 15)): 0 n (%) | TEAE: Skin and subcutaneous tissue disorders (Grade 3, Overall BID (N = 15)): 1 (6.7) n (%) | TEAE: Vascular disorders (Grade 3, Overall BID (N = 15)): 1 (6.7) n (%) | TEAE: Vomiting (Grade 3, Overall BID (N = 15)): 0 n (%) | Any treatment-emergent adverse event (TEAE) (Grade 3, Overall QD (N = 20)): 6 (30.0) n (%) | TEAE: Blood and lymphatic system disorders (Grade 3, Overall QD (N = 20)): 1 (5.0) n (%) | TEAE: Diarrhoea (Grade 3, Overall QD (N = 20)): 0 n (%) | TEAE: Dyspnoea (Grade 3, Overall QD (N = 20)): 1 (5.0) n (%) | TEAE: Fatigue (Grade 3, Overall QD (N = 20)): 0 n (%) | TEAE: Gastrointestinal disorders (Grade 3, Overall QD (N = 20)): 3 (15.0) n (%) | TEAE: General disorders and administration site conditions (Grade 3, Overall QD (N = 20)): 0 n (%) | TEAE: Infections and infestations (Grade 3, Overall QD (N = 20)): 1 (5.0) n (%) | TEAE: Metabolism and nutrition disorders (Grade 3, Overall QD (N = 20)): 2 (10.0) n (%) | TEAE: Musculoskeletal and connective tissue disorders (Grade 3, Overall QD (N = 20)): 1 (5.0) n (%) | TEAE: Nausea (Grade 3, Overall QD (N = 20)): 1 (5.0) n (%) | TEAE: Renal and urinary disorders (Grade 3, Overall QD (N = 20)): 0 n (%) | TEAE: Respiratory, thoracic, and mediastinal disorders (Grade 3, Overall QD (N = 20)): 2 (10.0) n (%) | TEAE: Skin and subcutaneous tissue disorders (Grade 3, Overall QD (N = 20)): 0 n (%) | TEAE: Vascular disorders (Grade 3, Overall QD (N = 20)): 1 (5.0) n (%) | TEAE: Vomiting (Grade 3, Overall QD (N = 20)): 1 (5.0) n (%) | Any treatment-emergent adverse event (TEAE) [1]: 12 (34.3) n (%) | TEAE: Blood and lymphatic system disorders [1]: 2 (5.7) n (%) | TEAE: Diarrhoea [1]: 1 (2.9) n (%) | TEAE: Dyspnoea [1]: 1 (2.9) n (%) | TEAE: Fatigue [1]: 1 (2.9) n (%) | TEAE: Gastrointestinal disorders [1]: 4 (11.4) n (%) | TEAE: General disorders and administration site conditions [1]: 1 (2.9) n (%) | TEAE: Infections and infestations [1]: 2 (5.7) n (%) | TEAE: Metabolism and nutrition disorders [1]: 2 (5.7) n (%) | TEAE: Musculoskeletal and connective tissue disorders [1]: 2 (5.7) n (%) | TEAE: Nausea [1]: 1 (2.9) n (%) | TEAE: Renal and urinary disorders [1]: 1 (2.9) n (%) | TEAE: Respiratory, thoracic, and mediastinal disorders [1]: 2 (5.7) n (%) | TEAE: Skin and subcutaneous tissue disorders [1]: 1 (2.9) n (%) | TEAE: Vascular disorders [1]: 2 (5.7) n (%) | TEAE: Vomiting [1]: 1 (2.9) n (%) | Any treatment-emergent adverse event (TEAE) [2]: 15 (100.0) n (%) | TEAE: Abdominal distension [2]: 3 (20.0) n (%) | TEAE: Abdominal pain [2]: 0 n (%) | TEAE: Back pain [2]: 2 (13.3) n (%) | TEAE: Blood and lymphatic system disorders [2]: 2 (13.3) n (%) | TEAE: Chills [2]: 4 (26.7) n (%) | TEAE: Constipation [2]: 7 (46.7) n (%) | TEAE: Cough [2]: 3 (20.0) n (%) | TEAE: Decreased appetite [2]: 5 (33.3) n (%) | TEAE: Diarrhoea [2]: 9 (60.0) n (%) | TEAE: Dizziness [2]: 0 n (%) | TEAE: Dysgeusia [2]: 2 (13.3) n (%) | TEAE: Dyspnoea [2]: 5 (33.3) n (%) | TEAE: Fatigue [2]: 10 (66.7) n (%) | TEAE: Gastrointestinal disorders [2]: 13 (86.7) n (%) | TEAE: General disorders and administration site conditions [2]: 12 (80.0) n (%) | TEAE: Haematuria [2]: 4 (26.7) n (%) | TEAE: Headache [2]: 3 (20.0) n (%) | TEAE: Infections and infestations [2]: 7 (46.7) n (%) | TEAE: Investigations [2]: 3 (20.0) n (%) | TEAE: Metabolism and nutrition disorders [2]: 5 (33.3) n (%) | TEAE: Musculoskeletal and connective tissue disorders [2]: 6 (40.0) n (%) | TEAE: Nausea [2]: 11 (73.3) n (%) | TEAE: Nervous system disorders [2]: 5 (33.3) n (%) | TEAE: Oedema peripheral [2]: 2 (13.3) n (%) | TEAE: Psychiatric disorders [2]: 3 (20.0) n (%) | TEAE: Pyrexia [2]: 2 (13.3) n (%) | TEAE: Renal and urinary disorders [2]: 5 (33.3) n (%) | TEAE: Respiratory, thoracic, and mediastinal disorders [2]: 8 (53.3) n (%) | TEAE: Skin and subcutaneous tissue disorders [2]: 3 (20.0) n (%) | TEAE: Urinary tract infection [2]: 3 (20.0) n (%) | TEAE: Vascular disorders [2]: 2 (13.3) n (%) | TEAE: Vomiting [2]: 6 (40.0) n (%) | TEAE: Weight decreased [2]: 2 (13.3) n (%) | Any treatment-emergent adverse event (TEAE) (Grade All, Overall QD (N = 20)): 19 (95.0) n (%) | TEAE: Abdominal distension (Grade All, Overall QD (N = 20)): 3 (15.0) n (%) | TEAE: Abdominal pain (Grade All, Overall QD (N = 20)): 5 (25.0) n (%) | TEAE: Back pain (Grade All, Overall QD (N = 20)): 2 (10.0) n (%) | TEAE: Blood and lymphatic system disorders (Grade All, Overall QD (N = 20)): 2 (10.0) n (%) | TEAE: Chills (Grade All, Overall QD (N = 20)): 2 (10.0) n (%) | TEAE: Constipation (Grade All, Overall QD (N = 20)): 7 (35.0) n (%) | TEAE: Cough (Grade All, Overall QD (N = 20)): 4 (20.0) n (%) | TEAE: Decreased appetite (Grade All, Overall QD (N = 20)): 7 (35.0) n (%) | TEAE: Diarrhoea (Grade All, Overall QD (N = 20)): 11 (55.0) n (%) | TEAE: Dizziness (Grade All, Overall QD (N = 20)): 4 (20.0) n (%) | TEAE: Dysgeusia (Grade All, Overall QD (N = 20)): 2 (10.0) n (%) | TEAE: Dyspnoea (Grade All, Overall QD (N = 20)): 7 (35.0) n (%) | TEAE: Fatigue (Grade All, Overall QD (N = 20)): 12 (60.0) n (%) | TEAE: Gastrointestinal disorders (Grade All, Overall QD (N = 20)): 17 (85.0) n (%) | TEAE: General disorders and administration site conditions (Grade All, Overall QD (N = 20)): 15 (75.0) n (%) | TEAE: Haematuria (Grade All, Overall QD (N = 20)): 1 (5.0) n (%) | TEAE: Headache (Grade All, Overall QD (N = 20)): 2 (10.0) n (%) | TEAE: Infections and infestations (Grade All, Overall QD (N = 20)): 4 (20.0) n (%) | TEAE: Investigations (Grade All, Overall QD (N = 20)): 5 (25.0) n (%) | TEAE: Metabolism and nutrition disorders (Grade All, Overall QD (N = 20)): 9 (45.0) n (%) | TEAE: Musculoskeletal and connective tissue disorders (Grade All, Overall QD (N = 20)): 8 (40.0) n (%) | TEAE: Nausea (Grade All, Overall QD (N = 20)): 13 (65.0) n (%) | TEAE: Nervous system disorders (Grade All, Overall QD (N = 20)): 10 (50.0) n (%) | TEAE: Oedema peripheral (Grade All, Overall QD (N = 20)): 2 (10.0) n (%) | TEAE: Psychiatric disorders (Grade All, Overall QD (N = 20)): 2 (10.0) n (%) | TEAE: Pyrexia (Grade All, Overall QD (N = 20)): 3 (15.0) n (%) | TEAE: Renal and urinary disorders (Grade All, Overall QD (N = 20)): 1 (5.0) n (%) | TEAE: Respiratory, thoracic, and mediastinal disorders (Grade All, Overall QD (N = 20)): 11 (55.0) n (%) | TEAE: Skin and subcutaneous tissue disorders (Grade All, Overall QD (N = 20)): 7 (35.0) n (%) | TEAE: Urinary tract infection (Grade All, Overall QD (N = 20)): 1 (5.0) n (%) | TEAE: Vascular disorders (Grade All, Overall QD (N = 20)): 3 (15.0) n (%) | TEAE: Vomiting (Grade All, Overall QD (N = 20)): 11 (55.0) n (%) | TEAE: Weight decreased (Grade All, Overall QD (N = 20)): 4 (20.0) n (%) | Any treatment-emergent adverse event (TEAE) [3]: 34 (97.1) n (%) | TEAE: Abdominal distension [3]: 6 (17.1) n (%) | TEAE: Abdominal pain [3]: 5 (14.3) n (%) | TEAE: Back pain [3]: 4 (11.4) n (%) | TEAE: Blood and lymphatic system disorders [3]: 4 (11.4) n (%) | TEAE: Chills [3]: 6 (17.1) n (%) | TEAE: Constipation [3]: 14 (40.0) n (%) | TEAE: Cough [3]: 7 (20.0) n (%) | TEAE: Decreased appetite [3]: 12 (34.3) n (%) | TEAE: Diarrhoea [3]: 20 (57.1) n (%) | TEAE: Dizziness [3]: 4 (11.4) n (%) | TEAE: Dysgeusia [3]: 4 (11.4) n (%) | TEAE: Dyspnoea [3]: 12 (34.3) n (%) | TEAE: Fatigue [3]: 22 (62.9) n (%) | TEAE: Gastrointestinal disorders [3]: 30 (85.7) n (%) | TEAE: General disorders and administration site conditions [3]: 27 (77.1) n (%) | TEAE: Haematuria [3]: 5 (14.3) n (%) | TEAE: Headache [3]: 5 (14.3) n (%) | TEAE: Infections and infestations [3]: 11 (31.4) n (%) | TEAE: Investigations [3]: 8 (22.9) n (%) | TEAE: Metabolism and nutrition disorders [3]: 14 (40.0) n (%)
